According to the supplement of paper PMC11997997:

Tests used:
[1] = test system: murine bone marrow-derived macrophages; assay: area under cytotoxicity dose-response curve (AUC (% cytotoxicity x dose, relative)); higher = more cytotoxic; conditions: duration: 6 days; dose range: 0.13-80 uM, 8 points
Summary of the method: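 Values are the area under the cytotoxicity dose–response curve, calculated with GraphPad Prism version 10. Primary murine bone marrow-derived macrophages were exposed to final concentrations of 80–0.13 μM for 6 days, and viability was read by CellTiter-Glo luminescence with normalisation to vehicle and positive control wells.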

[2] = test system: Mycobacterium tuberculosis CDC1551 (intracellular, in murine BMDM); assay: area under intracellular growth-inhibition dose-response curve (AUC (% inhibition x dose, relative)); higher = more potent; conditions: duration: 6 days; dose range: 0.13-80 uM, 8 points
Summary of the method: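 The value is the area under the growth-inhibition dose–response curve, calculated in GraphPad Prism. Primary murine bone marrow-derived macrophages were seeded in 384-well opaque plates and, 24 h later, infected for 1 h with luciferase-expressing M. tuberculosis CDC1551 at multiplicity of infection 1. Cells were then exposed for 6 days to an 8-dose, 2.5-fold series (final 80–0.13 μM). Growth was read with the Bright-Glo luciferin assay and normalised to a reference drug control and to the lowest-concentration wells.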

Row | SMILES | area under cytotoxicity dose-response curve [1] | area under intracellular growth-inhibition dose-response curve [2]
1 | O=c1c2ccsc2ncn1Cc1ccc(Cl)cc1 | 15 | 120
2 | CCOc1ccc(/C=N/n2cc(-c3ccccc3)nc2S)cc1 | < 0 | 265
3 | O=C(COC(=O)c1cc(Cl)nc(Cl)c1)NCCc1ccc(F)cc1 | 4.71 | 108
4 | O=[N+]([O-])c1ccc(/C=N/Nc2nc(N3CCCC3)nc(N3CCCC3)n2)o1 | 171 | 168
5 | C/C(=N\Nc1nc(C)c(C)s1)c1ccc([N+](=O)[O-])cc1 | < 0 | 222
6 | CCCCNC(=S)Nc1ccc2c[nH]nc2c1 | 37.5 | 190
7 | CCCc1cc(C(N)=S)ccn1 | 8.35 | 215
8 | CCC(C)N1CCC2(CC1)N=c1c3c(O)c4c(O)c(C)c5c(c4c1=N2)C(=O)[C@@](C)(OC=C[C@H](OC)[C@@H](C)[C@@H](OC(C)=O)[C@H](C)[C@H](O)[C@H](C)[C@@H](O)[C@@H](C)C=CC=C(C)C(=O)N3)O5 (stereo not given in full) | 86.3 | 253
9 | CO[C@@H]1[C@@H](OC(N)=O)[C@@H](O)C(Oc2ccc3c(O)c(NC(=O)c4ccc([O-])c(CC=C(C)C)c4)c(=O)oc3c2C)OC1(C)C.[Na+] (stereo not given in full) | 80.2 | 24.9
10 | Cc1cccc(/C=N/NC(=O)c2ccncc2)n1 | 14 | 269
11 | NC(=S)N/N=C/c1cccc(/C=N/NC(N)=S)c1 | 91.2 | 177
12 | C/C=C/C=N\NC(=O)c1ccncc1 | 9.36 | 259
13 | COc1cccc2c1C(=O)c1c(O)c3c(c(O)c1C2=O)C[C@@](O)(C(=O)CO)C[C@@H]3O[C@H]1C[C@H](N)[C@H](O)[C@H](C)O1.Cl | 147 | 117
14 | Clc1cnc(N/N=C/c2ccco2)c(Cl)c1 | 93.8 | 189
15 | O=C(CC12CC3CC(CC(C3)C1)C2)NCc1ccco1 | 60.5 | 224
16 | O=C(NCC1CCCCC1)c1ccco1 | 106 | 251
17 | CC(=O)NC(=S)Nc1ccc(NC(=O)COc2ccc(Cl)cc2Cl)cc1 | 38.6 | 220
18 | CCCCN(C(=O)c1ccco1)c1c(N)n(CCC)c(=O)[nH]c1=O | 53.6 | < 0
19 | COc1ccc(Cn2c(SCc3ccccc3C)nc3cc(OC)c(OC)cc3c2=N)cc1 | 2.96 | 172
20 | Clc1ccc(-c2nnc(C3CCCCC3)o2)cc1 | < 0 | 212

Row | SMILES | area under cytotoxicity dose-response curve [1] | area under intracellular growth-inhibition dose-response curve [2]
21 | O=C(N/N=C/c1cn[nH]c1-c1ccc(F)cc1)c1ccncc1 | 215 | 226
22 | O=C(N/N=C/c1ccc2c(c1)OCCO2)c1ccncc1 | 66.5 | 124
23 | CC(C)[C@H](CN1CCC[C@H]1CN1C(N)=NC[C@@H]1Cc1ccccc1)N1C[C@@H](Cc2ccccc2)N(CCc2ccc(Cl)c(Cl)c2)C1=N | 52.7 | 211
24 | O=C(NCC1CCCCC1)c1ccc([N+](=O)[O-])cc1 | 77.6 | 239
25 | Cc1ccc(C)c(NC(=O)CN(C)C(=O)c2ccc(S(=O)(=O)N3CCCCCC3)cc2)c1 | < 0 | 30.7
26 | CC1CCC/C(=N\NC(=O)c2ccncc2)C1 (stereo not given) | 70.8 | 186
27 | Cc1ccc(CNC(=O)c2ccc(Br)o2)cc1 | < 0 | 267
28 | COc1ccc(/C=N/NC(N)=S)cc1OC(=O)c1ccccc1 | 106 | 241
29 | Cc1[nH]c2ccccc2c1C(=O)C(C)OC(=O)c1ccc([N+](=O)[O-])o1 (stereo not given) | < 0 | 3.96
30 | Cc1ccc(C(=O)N2CCN(c3ccc(NC(=S)NC(=O)c4cccs4)cc3)CC2)cc1 | < 0 | 275
31 | O=C(NCc1ccccc1)c1ccc(Br)o1 | 19.6 | 267
32 | NC(=S)N/N=C/c1c[nH]c2ccccc12 | 35.6 | 231
33 | COc1ccc(CN(C)C(=O)c2cccc(S(=O)(=O)N3CCCc4ccccc43)c2)c(OC)c1OC | 16.4 | 144
34 | C#CCSc1nnc(-c2ccc([N+](=O)[O-])cc2)o1 | < 0 | 246
35 | Nc1nc(Cl)nc2c1ncn2[C@@H]1O[C@H](CO)[C@@H](O)[C@H]1O | 81.9 | 205
36 | Cc1ccc(C(=O)OCC(=O)NC2CCCC(C)C2C)cc1S(=O)(=O)N1CCCCC1 (stereo not given) | < 0 | 136
37 | CC(=O)Oc1c(C)cc(Cl)cc1C(=O)Nc1ccc([N+](=O)[O-])cc1Cl | 113 | 230
38 | CCCC(=O)NC(=S)Nc1ccc(NC(=O)c2cccs2)cc1 | 8.63 | 261
39 | C=C1C(=O)O[C@@H]2C[C@@H](C)[C@@H]3C=CC(=O)[C@@]3(C)[C@@H](OC(C)=O)[C@H]12 | 118 | 46.3
40 | COc1cc(/C=N/NC(N)=S)ccc1OCC(=O)Nc1ccc(C)c(C)c1 | 10.1 | 242

Row | SMILES | area under cytotoxicity dose-response curve [1] | area under intracellular growth-inhibition dose-response curve [2]
41 | O=C(Cn1nnc(-c2ccc(F)cc2)n1)Nc1cccc(S(=O)(=O)N2CCCC2)c1 | 11.8 | 73.7
42 | O=C(c1ccc([N+](=O)[O-])o1)N1CCN(c2nc3c(Cl)cccc3s2)CC1 | 124 | 18.1
43 | COc1ccccc1C(CNC(=O)CN1C(=O)NC(C)(c2ccc3ccccc3c2)C1=O)N1CCCC1 (stereo not given) | 44.4 | 93.4
44 | COc1ccc(CCNC(=O)c2cc([N+](=O)[O-])cc([N+](=O)[O-])c2)cc1OC | < 0 | 243
45 | NS(=O)(=O)c1ccc(NC(=O)c2ccc(Cl)c(S(=O)(=O)NCc3ccco3)c2)cc1 | < 0 | 25.5
46 | NS(=O)(=O)c1ccc(CCNC(=S)Nc2ccccc2)cc1 | < 0 | 221
47 | C=CCOc1ccc(/C=N\NC(N)=S)cc1 | 10.8 | 276
48 | CC(=O)/C=C(\C)Nc1ccccc1O | 95 | 54.6
49 | CNc1nc(SC)nc2ccccc12 | 77.9 | 242
50 | CC1CCN(C(=O)C2CCN(c3ncnc4c3nc3n4CCCCC3)CC2)CC1 | 35.4 | 176
51 | CC(NC(=O)c1ccccc1F)c1ccccc1 (stereo not given) | 53.4 | 95.2
52 | O=C(NCC(c1cccs1)N1CCOCC1)c1cc([N+](=O)[O-])cc([N+](=O)[O-])c1 (stereo not given) | 20.1 | 276
53 | CN(C)c1nc(-c2ccccn2)nnc1-c1ccccc1 | 120 | 149
54 | CC(=O)c1c(C)[n+]([O-])c2cc(F)c(F)cc2[n+]1[O-] | 13.7 | 45.9
55 | O=C(COc1ccc(Cl)cc1)N1CCCC1 | 64 | 213
56 | Cc1ccc(C2=NCCn3c2c2ccc(C(F)(F)F)cc2[n+]3[O-])cc1 | < 0 | 161
57 | O=[N+]([O-])c1ccc(CN2CCN(c3ccccc3)CC2)o1 | 42.8 | 254
58 | Cc1ccccc1N1CCN(Cc2ccc([N+](=O)[O-])o2)CC1 | < 0 | 263
59 | CCOC(=O)c1ccccc1OCc1cc(/C=N/NC(=O)c2ccncc2)ccc1OC | 20.2 | 269
60 | CCC(=O)NC(=S)Nc1ccc(N2CCN(C(=O)c3ccc(Cl)cc3)CC2)cc1 | 3.79 | 269
